From article PMC4519236 (Bioorganic & medicinal chemistry, 2013)
Entries after “also recorded” stand apart in the source; their conditions may differ. Each block holds one compound with its values, some of them ahead of it.

Tests used:
muscle subtype nAChR = muscle subtype nAChR (Homo sapiens, UniProt P02708+Q07001); assay: Electrophysiology, muscle subtype nAChR expressed in Xenopus oocytes; format: cell-based; conditions: 1 or 10 μM; co-applied at 1 μM with ACh; relative to ACh control
α4β2* nAChR [1] = molecular target: α4β2* nAChR (Homo sapiens, UniProt P17787+P43681); assay: Electrophysiology, α4β2* nAChR expressed in Xenopus oocytes; format: cell-based; conditions: 1 or 10 μM; co-applied at 1 μM with ACh; relative to ACh control
α4β2* nAChR [2] = molecular target: α4β2* nAChR (Rattus norvegicus, UniProt P09483+P12390); assay: Radioligand binding assay, α4β2* nAChR
α7* nAChR = α7* nAChR (Rattus norvegicus, UniProt Q05941); assay: Radioligand binding assay, α7* nAChR
(α1)2β1γδ nAChR = (α1)2β1γδ nAChR (Tetronarce californica, UniProt P02710+P02714+P02718); assay: Radioligand binding assay, muscle type
α3β4* nAChR [3] = assay: Radioligand binding assay, α3β4* nAChR
mouse model = conditions: ref [26]; cited from earlier work
α3β4* nAChR [4] = molecular target: α3β4* nAChR (Homo sapiens, UniProt P30926+P32297); assay: Electrophysiology, α3β4* nAChR expressed in Xenopus oocytes; format: cell-based; conditions: 1 or 10 μM; co-applied at 1 μM with ACh; relative to ACh control
[5] = relative to vinyl spacer analog 26

Sequence of α4β2* nAChR (Homo sapiens, UniProt P17787+P43681) (P43681 29-627 limits assumed): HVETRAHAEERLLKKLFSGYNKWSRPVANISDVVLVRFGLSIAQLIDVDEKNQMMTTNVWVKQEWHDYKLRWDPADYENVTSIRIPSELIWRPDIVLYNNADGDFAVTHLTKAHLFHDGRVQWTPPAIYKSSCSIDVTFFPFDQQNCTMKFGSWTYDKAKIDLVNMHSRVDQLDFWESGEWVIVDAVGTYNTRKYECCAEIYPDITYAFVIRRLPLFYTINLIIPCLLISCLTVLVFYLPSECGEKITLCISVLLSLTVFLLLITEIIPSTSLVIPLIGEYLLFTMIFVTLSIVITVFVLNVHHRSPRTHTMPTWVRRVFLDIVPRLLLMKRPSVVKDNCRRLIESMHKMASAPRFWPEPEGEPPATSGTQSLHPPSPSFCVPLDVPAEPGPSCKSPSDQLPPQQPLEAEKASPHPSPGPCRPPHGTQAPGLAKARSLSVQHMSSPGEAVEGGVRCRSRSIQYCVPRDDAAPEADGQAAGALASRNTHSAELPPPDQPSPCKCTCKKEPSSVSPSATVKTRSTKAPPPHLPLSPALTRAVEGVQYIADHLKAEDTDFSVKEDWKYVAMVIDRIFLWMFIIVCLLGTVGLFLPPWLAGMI
Sequence of α4β2* nAChR (Homo sapiens, UniProt P17787+P43681) (P17787 26-502): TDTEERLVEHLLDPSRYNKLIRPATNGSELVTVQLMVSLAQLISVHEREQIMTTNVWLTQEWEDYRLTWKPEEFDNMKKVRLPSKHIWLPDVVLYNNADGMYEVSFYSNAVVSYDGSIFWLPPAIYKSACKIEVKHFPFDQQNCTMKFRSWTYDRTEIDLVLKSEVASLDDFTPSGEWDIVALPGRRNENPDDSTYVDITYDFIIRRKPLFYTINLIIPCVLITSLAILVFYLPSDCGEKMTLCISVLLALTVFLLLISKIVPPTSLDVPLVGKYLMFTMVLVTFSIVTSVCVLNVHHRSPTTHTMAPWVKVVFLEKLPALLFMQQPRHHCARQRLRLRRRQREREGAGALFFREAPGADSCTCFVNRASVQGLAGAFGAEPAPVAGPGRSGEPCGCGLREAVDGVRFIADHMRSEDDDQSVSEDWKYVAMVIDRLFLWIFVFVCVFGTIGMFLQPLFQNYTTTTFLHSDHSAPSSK
Sequence of α4β2* nAChR (Rattus norvegicus, UniProt P09483+P12390) (P09483 31-630): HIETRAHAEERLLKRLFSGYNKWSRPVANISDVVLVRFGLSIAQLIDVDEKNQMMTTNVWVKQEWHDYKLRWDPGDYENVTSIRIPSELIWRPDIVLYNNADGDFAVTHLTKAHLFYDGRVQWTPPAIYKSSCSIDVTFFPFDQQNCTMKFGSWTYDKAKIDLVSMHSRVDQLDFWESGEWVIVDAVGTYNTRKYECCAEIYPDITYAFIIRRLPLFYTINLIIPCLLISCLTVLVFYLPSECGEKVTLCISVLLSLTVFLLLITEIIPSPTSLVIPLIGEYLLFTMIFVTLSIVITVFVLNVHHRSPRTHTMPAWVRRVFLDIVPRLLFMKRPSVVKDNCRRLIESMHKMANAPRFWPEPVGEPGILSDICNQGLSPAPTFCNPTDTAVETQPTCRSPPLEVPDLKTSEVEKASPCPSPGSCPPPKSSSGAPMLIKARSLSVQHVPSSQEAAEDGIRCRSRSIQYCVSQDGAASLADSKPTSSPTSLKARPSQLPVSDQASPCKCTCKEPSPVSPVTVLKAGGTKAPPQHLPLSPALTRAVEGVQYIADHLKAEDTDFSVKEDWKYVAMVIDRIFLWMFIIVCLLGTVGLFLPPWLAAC
Sequence of α4β2* nAChR (Rattus norvegicus, UniProt P09483+P12390) (P12390 25-500): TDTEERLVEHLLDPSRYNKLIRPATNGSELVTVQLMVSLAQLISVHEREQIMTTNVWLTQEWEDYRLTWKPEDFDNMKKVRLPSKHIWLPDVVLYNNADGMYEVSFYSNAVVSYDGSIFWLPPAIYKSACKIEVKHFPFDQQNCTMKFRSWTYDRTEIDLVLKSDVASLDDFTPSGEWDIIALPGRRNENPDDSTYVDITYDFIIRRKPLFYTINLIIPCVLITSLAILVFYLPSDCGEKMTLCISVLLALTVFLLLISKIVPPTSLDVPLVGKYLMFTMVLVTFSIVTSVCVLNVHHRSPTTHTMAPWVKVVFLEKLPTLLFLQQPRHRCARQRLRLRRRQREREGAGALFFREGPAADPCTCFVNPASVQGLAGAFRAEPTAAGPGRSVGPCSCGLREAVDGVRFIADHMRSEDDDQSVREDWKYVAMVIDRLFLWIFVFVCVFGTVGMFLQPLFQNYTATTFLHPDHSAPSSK
Sequence of α7* nAChR (Q05941 23-502): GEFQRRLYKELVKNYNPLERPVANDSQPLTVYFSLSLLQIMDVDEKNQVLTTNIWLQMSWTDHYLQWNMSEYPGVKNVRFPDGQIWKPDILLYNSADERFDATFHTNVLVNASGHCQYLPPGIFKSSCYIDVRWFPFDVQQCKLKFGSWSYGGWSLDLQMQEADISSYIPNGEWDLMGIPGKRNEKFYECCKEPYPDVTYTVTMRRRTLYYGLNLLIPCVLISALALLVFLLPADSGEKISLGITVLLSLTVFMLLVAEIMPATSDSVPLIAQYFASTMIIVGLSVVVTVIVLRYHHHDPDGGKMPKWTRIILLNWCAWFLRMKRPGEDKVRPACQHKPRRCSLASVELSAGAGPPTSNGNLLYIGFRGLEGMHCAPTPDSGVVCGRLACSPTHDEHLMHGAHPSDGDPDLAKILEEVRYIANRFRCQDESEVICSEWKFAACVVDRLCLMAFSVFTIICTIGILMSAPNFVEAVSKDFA
Sequence of α3β4* nAChR (Homo sapiens, UniProt P30926+P32297) (P32297 32-505): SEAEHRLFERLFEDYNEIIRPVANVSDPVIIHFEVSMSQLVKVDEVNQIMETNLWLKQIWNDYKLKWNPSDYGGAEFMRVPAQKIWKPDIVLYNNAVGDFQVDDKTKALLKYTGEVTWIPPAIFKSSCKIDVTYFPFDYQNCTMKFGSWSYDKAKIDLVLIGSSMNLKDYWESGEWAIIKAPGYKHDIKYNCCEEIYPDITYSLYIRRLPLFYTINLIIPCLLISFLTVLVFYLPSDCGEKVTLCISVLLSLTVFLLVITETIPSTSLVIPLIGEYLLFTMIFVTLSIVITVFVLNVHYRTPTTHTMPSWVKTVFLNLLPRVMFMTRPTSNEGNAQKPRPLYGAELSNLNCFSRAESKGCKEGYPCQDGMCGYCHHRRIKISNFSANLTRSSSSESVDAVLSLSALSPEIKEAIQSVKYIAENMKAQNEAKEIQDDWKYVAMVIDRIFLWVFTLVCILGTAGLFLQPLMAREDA
Sequence of α3β4* nAChR (Homo sapiens, UniProt P30926+P32297) (P30926 22-498): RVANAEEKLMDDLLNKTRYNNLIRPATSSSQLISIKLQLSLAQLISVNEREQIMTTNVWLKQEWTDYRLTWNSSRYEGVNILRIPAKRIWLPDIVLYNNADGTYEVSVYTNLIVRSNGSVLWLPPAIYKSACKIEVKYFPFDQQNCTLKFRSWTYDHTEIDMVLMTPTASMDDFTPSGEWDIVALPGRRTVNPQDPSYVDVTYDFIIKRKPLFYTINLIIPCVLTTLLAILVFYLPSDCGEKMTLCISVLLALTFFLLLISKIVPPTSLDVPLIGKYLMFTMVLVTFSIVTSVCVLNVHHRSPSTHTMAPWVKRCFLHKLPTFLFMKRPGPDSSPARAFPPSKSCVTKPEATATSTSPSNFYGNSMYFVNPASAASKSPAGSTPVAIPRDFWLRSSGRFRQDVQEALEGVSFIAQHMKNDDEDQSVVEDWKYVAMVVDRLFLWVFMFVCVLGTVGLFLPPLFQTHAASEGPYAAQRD
Sequence of muscle subtype nAChR (P02708 21-457): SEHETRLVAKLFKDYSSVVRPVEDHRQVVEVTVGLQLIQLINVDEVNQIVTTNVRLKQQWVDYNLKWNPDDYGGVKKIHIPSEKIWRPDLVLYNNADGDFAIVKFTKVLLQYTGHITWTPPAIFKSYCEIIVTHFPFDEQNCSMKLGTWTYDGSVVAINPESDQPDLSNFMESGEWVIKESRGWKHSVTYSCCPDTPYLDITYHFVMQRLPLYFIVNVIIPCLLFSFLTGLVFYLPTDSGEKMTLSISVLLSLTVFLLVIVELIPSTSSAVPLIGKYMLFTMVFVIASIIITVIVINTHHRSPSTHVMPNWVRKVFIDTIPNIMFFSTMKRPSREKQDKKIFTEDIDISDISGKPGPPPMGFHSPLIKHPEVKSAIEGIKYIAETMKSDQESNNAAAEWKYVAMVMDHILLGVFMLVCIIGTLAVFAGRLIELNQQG
Sequence of muscle subtype nAChR (P11230 24-501 partner): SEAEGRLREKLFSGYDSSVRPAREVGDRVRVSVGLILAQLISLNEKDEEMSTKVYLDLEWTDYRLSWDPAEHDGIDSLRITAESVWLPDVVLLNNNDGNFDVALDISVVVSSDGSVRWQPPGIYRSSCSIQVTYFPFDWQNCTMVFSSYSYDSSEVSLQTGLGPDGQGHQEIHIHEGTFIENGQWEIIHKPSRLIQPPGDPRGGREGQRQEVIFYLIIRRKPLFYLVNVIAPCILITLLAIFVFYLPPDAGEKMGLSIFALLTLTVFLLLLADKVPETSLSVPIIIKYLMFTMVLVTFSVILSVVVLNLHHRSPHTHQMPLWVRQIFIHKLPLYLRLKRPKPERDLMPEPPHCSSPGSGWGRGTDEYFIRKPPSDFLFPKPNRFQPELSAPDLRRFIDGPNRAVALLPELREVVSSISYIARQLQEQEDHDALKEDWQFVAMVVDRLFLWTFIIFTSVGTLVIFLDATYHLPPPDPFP
Sequence of muscle subtype nAChR (Q07001 22-517): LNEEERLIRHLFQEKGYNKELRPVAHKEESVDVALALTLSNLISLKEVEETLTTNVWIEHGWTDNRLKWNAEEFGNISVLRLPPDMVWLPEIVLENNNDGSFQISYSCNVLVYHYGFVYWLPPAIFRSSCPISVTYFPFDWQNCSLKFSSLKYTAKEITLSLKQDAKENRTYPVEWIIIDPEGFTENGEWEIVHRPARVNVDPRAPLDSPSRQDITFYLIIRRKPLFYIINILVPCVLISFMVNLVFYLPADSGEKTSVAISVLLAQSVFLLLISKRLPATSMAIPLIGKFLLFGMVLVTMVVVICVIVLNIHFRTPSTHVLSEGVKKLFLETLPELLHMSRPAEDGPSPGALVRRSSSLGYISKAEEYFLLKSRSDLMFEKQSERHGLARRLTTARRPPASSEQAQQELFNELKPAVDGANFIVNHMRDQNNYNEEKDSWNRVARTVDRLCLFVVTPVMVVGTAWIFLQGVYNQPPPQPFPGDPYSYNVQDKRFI

Structure (SMILES): O=C(/C=C/c1ccccc1)N1C[C@@H]2CNC[C@@H](C2)C1 [Compound 16, (E)-1-((1R,5S)-3,7-diazabicyclo[3.3.1]nonan-3-yl)-3-phenylprop-2-en-1-one]
affinity for α7* nAChR, in words (α7* nAChR): lacked affinity
affinity for (α1)2β1γδ nAChR, in words ((α1)2β1γδ nAChR): lacked affinity
affinity for α3β4* nAChR, in words (α3β4* nAChR [3]): lacked affinity

Structure (SMILES): O=C(Cc1ccccc1)N1C[C@@H]2CNC[C@@H](C2)C1 [Compound 30, 1-((1R,5S)-3,7-diazabicyclo[3.3.1]nonan-3-yl)-2-phenylethanone]
increase of α4β2* affinity (α4β2* nAChR [2]; relative to compound 29): about 8 fold

Structure (SMILES): O=C(C#Cc1ccccc1)N1C[C@@H]2CNC[C@@H](C2)C1 [Compound 42]
higher affinity for α4β2* (α4β2* nAChR [2]; relative to analogs 32 and 16): 5 times

Structure (SMILES): O=C(c1csc(-c2ccncc2)n1)N1C[C@@H]2CNC[C@@H](C2)C1 [Compound 55, (1R,5S)-3,7-diazabicyclo[3.3.1]nonan-3-yl(2-(pyridine-4-yl)thiazol-4-yl)methanone]
affinity for α4β2* / nAChRs tested, in words (α4β2* nAChR [2]): did not show any affinity

Structure (SMILES): O=C(c1ccc(-c2cccnc2)cc1)N1C[C@@H]2CNC[C@@H](C2)C1 [Compound 52, (1R,5S)-3,7-diazabicyclo[3.3.1]nonan-3-yl(4-(pyridin-3-yl)phenyl)methanone]
functional effect at α4β2* (α4β2* nAChR [1]): strongest antagonistic effects

Structure (SMILES): O=c1c(-c2ccccc2)ccc2n1C[C@@H]1CNC[C@H]2C1 [Compound 4, 9-phenyl-1,2,3,4,5,6-hexahydro-1,5-methano-pyridino[1,2-a]diazocin-8-one]
α4β2* affinity lower than cytisine 1 (α4β2* nAChR [2]; relative to cytisine 1): about 1000 times

Structure (SMILES): O=C(c1ccc(-c2ccncc2)cc1)N1C[C@@H]2CNC[C@@H](C2)C1 [Compound 53, (1R,5S)-3,7-diazabicyclo[3.3.1]nonan-3-yl(4-(pyridin-4-yl)phenyl)methanone]
functional effect at α4β2* (α4β2* nAChR [1]): strongest antagonistic effects

Now from value to compound, other results behind:

functional effect at muscle subtype (muscle subtype nAChR): some antagonistic effect
functional effect at α4β2* (α4β2* nAChR [1]): strongest antagonistic effects
higher affinity for α4β2* (α4β2* nAChR [2]; [5]): ~10 fold
Structure (SMILES): COc1ccc(C#CC(=O)N2C[C@@H]3CNC[C@@H](C3)C2)cc1OC [Compound 46, 1-((1R,5S)-3,7-diazabicyclo[3.3.1]nonan-3-yl)-3-(3,4-dimethoxyphenyl)prop-2-yn-1-one]

affinity for α4β2* / nAChRs tested, in words (α4β2* nAChR [2]): failed to interact
Structure (SMILES): O=C(Cc1c(F)c(F)c(F)c(F)c1F)N1C[C@@H]2CNC[C@@H](C2)C1 [Compound 34, 1-((1R,5S)-3,7-diazabicyclo[3.3.1]nonan-3-yl)-2-(2,3,4,5,6-pentafluorophenyl)ethanone]

affinity for α7* nAChR, in words (α7* nAChR): no affinity
Structure (SMILES): O=C(CCc1ccccc1)N1C[C@@H]2CNC[C@@H](C2)C1 [Compound 32, 1-((1R,5S)-3,7-diazabicyclo[3.3.1]nonan-3-yl)-3-phenylpropan-1-one]

functional effect at α4β2* (α4β2* nAChR [1]): strongest antagonistic effects
Structure (SMILES): CS(=O)(=O)c1ccc(CC(=O)N2C[C@@H]3CNC[C@@H](C3)C2)cc1 [Compound 35, 1-((1R,5S)-3,7-diazabicyclo[3.3.1]nonan-3-yl)-2-(4-(methylsulfonyl)phenyl)ethanone]
in vivo activity in a mouse model (mouse model): antidepressive effect

functional effect at α4β2* (α4β2* nAChR [1]): strongest antagonistic effects
Structure (SMILES): O=C(c1ccc(-n2ccnc2)cc1)N1C[C@@H]2CNC[C@@H](C2)C1 [Compound 54, (4-(1H-imidazol-1-yl)phenyl)((1R,5S)-3,7-diazabicyclo[3.3.1]nonan-3-yl)methanone]

functional effect at α4β2* (α4β2* nAChR [1]): strongest antagonistic effects
higher affinity for α4β2* (α4β2* nAChR [2]; [5]): ~10 fold
Structure (SMILES): O=C(C#Cc1ccc2c(c1)OCO2)N1C[C@@H]2CNC[C@@H](C2)C1 [Compound 50, 1-((1R,5S)-3,7-diazabicyclo[3.3.1]nonan-3-yl)-3-(benzo[d][1,3]dioxol-5-yl)prop-2-yn-1-one]

functional effect at α4β2* (α4β2* nAChR [1]): strongest antagonistic effects
Ki (α4β2* nAChR [2]): ~1 nM
Structure (SMILES): O=C([C@@H]1C[C@H]1c1ccccc1)N1C[C@@H]2CNC[C@@H](C2)C1 [Compound 15, (1R,5S)-3,7-diazabicyclo[3.3.1]nonan-3-yl((1R,2R)-2-phenylcyclopropyl)methanone]
functional effect at α3β4* (α3β4* nAChR [4]): agonist; also recorded: most potent agonist

functional effect at α4β2* (α4β2* nAChR [1]): strongest antagonistic effects
Structure (SMILES): COc1ccc(C#CC(=O)N2C[C@@H]3CNC[C@@H](C3)C2)cc1Cl [Compound 47, 1-((1R,5S)-3,7-diazabicyclo[3.3.1]nonan-3-yl)-3-(3-chloro-4-methoxyphenyl)prop-2-yn-1-one]
